The values below come from PubChem BioAssay AID1259408 (Genetic Toxicology Data Bank (GENE-TOX), 2018).

In this data set the test system is GENE-TOX genotoxicity assays, various organisms and cells. In words: GENE-TOX mutagenicity studies. The settings on record: for call: Assay Type: In vivo carcinogenicity studies. The text has this: GENE-TOX provides genetic toxicology (mutagenicity) test data from expert peer review of open scientific literature for more than 3,000 chemicals from the United States Environmental Protection Agency (EPA). GENE-TOX was established to select assay systems for evaluation, review data in the scientific literature, and recommend proper testing protocols and evaluation procedures for these systems.
GENE-TOX covers the years 1991 - 1998. It is no longer updated.
This is an archive assay for GENE-TOX mutagenicity studies.

The mark [1] stands for this setting: Species/Cell Type: Nonhuman, Assay Code: CCG+, Evaluation Type: Evaluation A (Pre-1980).
[2] abbreviates: Species/Cell Type: Salmonella typhimurium (one or more of the five standard strains: TA98, TA100, TA1535, TA1537, and TA1538), Assay Type: Histidine reverse gene mutation, Ames assay, Assay Code: SAL+, Evaluation Type: Evaluation A (Pre-1980).
[3] abbreviates: Species/Cell Type: Drosophila melanogaster, Assay Type: Sex-linked recessive lethal gene mutation, Assay Code: SRL+, Evaluation Type: Evaluation A (Pre-1980).
The mark [4] stands for this setting: Species/Cell Type: Salmonella typhimurium, Assay Type: Forward and reverse gene mutation, host-mediated assay, Assay Code: HMA+, Evaluation Type: Evaluation A (Pre-1980).
Where [5] appears, read: Species/Cell Type: Salmonella typhimurium (one or more of the five standard strains: TA98, TA100, TA1535, TA1537, and TA1538), Assay Type: Histidine reverse gene mutation, Ames assay, Assay Code: SAL+*, Activation: With metabolic activation, Evaluation Type: Evaluation A (Pre-1980).
Where [6] appears, read: Species/Cell Type: Syrian hamster embryo (SHE) cells, Assay Type: Cell transformation, clonal assay, Assay Code: CTC+, Evaluation Type: Evaluation A (Pre-1980).

Active and inactive are the calls of the source. No rule for the calls is given here.

On to `Cc1ccc(C2CO2)cc1C` (centres undefined), for which the mutagenic call (Species/Cell Type: Escherichia coli WP2, Assay Type: Tryptophan reverse gene mutation, Assay Code: WP2+D, Dose Response: With dose response, Evaluation Type: Evaluation A (Pre-1980)) is “active; positive” and the mutagenic call (Species/Cell Type: Escherichia coli WP2 UVRA, Assay Type: Tryptophan reverse gene mutation, Assay Code: WPU+D, Dose Response: With dose response, Evaluation Type: Evaluation A (Pre-1980)) was “active; positive”.

With `O=NN(CCCl)C(=O)NC1CCCCC1`, the mutagenic call by setting is: (Species/Cell Type: Chinese hamster lung (V79) cells, Assay Type: Forward gene mutation at the HPRT or ouabain locus, Assay Code: V79+, Evaluation Type: Evaluation A (Pre-1980)) “active; positive”; (Species/Cell Type: Chinese hamster ovary (CHO) cells, Assay Type: Forward gene mutation at the HPRT locus, Assay Code: CHO+, Evaluation Type: Evaluation B (Post-1980)) “active; positive”; (Species/Cell Type: Human lymphocytes, Assay Type: Sister-chromatid exchange (SCE) in vivo, Assay Code: SCY+, Evaluation Type: Evaluation B (Post-1980)) “active; positive”; (Species/Cell Type: Nonhuman, Assay Type: Sister-chromatid exchange (SCE) in vitro, Assay Code: SC2+, Evaluation Type: Evaluation B (Post-1980)) “active; positive”; (Species/Cell Type: Rodents, Sex: Male, Assay Type: Dominant lethal test, Assay Code: DLT+D, Dose Response: With dose response, Evaluation Type: Evaluation A (Pre-1980)) “active; positive”. For the same compound, the call under setting [1] is “active; positive”.

For `COc1cc(/C=N/NC(=O)COc2ccc(Br)cc2CN(C)C)ccc1O`, where the note is “Species/Cell Type: Saccharomyces cerevisiae, Assay Type: Reverse gene mutation, Assay Code: YERT, Evaluation Type: Evaluation A (Pre-1980)”, the mutagenic call is given as “no conclusion”.

As to `ClC(Cl)Br`, the mutagenic call was “active; positive” (Species/Cell Type: Human lymphocytes, Assay Type: Sister-chromatid exchange (SCE) in vitro, Assay Code: SCL+D, Dose Response: With dose response, Evaluation Type: Evaluation B (Post-1980)); “active; positive” (Species/Cell Type: Human, Assay Type: Sister-chromatid exchange (SCE) in vitro, Assay Code: SC1+D, Dose Response: With dose response, Evaluation Type: Evaluation B (Post-1980)); “active; positive” (Species/Cell Type: Nonhuman, Assay Type: Sister-chromatid exchange (SCE) in vivo, Assay Code: SC3+D, Dose Response: With dose response, Evaluation Type: Evaluation B (Post-1980)); “inactive; negative” (Species/Cell Type: Saccharomyces cerevisiae, Assay Type: Mitotic recombination or gene conversion, Assay Code: YEH-, Evaluation Type: Evaluation A (Pre-1980)); “active; positive” under setting [2].

As to `NNC(=O)NC(=O)NN`, under “Species/Cell Type: Escherichia coli WP2, Assay Type: Tryptophan reverse gene mutation, Assay Code: WP2+, Evaluation Type: Evaluation A (Pre-1980)”, the mutagenic call is “active; positive”.

Consider `COc1cc2c(c(OC)c1OC)-c1ccc(OC)c(=O)cc1[C@@H](NC(C)=O)CC2`, for which the mutagenic call runs as follows: (Species/Cell Type: Drosophila melanogaster, Assay Type: Aneuploidy, sex chromosome gain, chromosome aberrations, Assay Code: DAG+F, Evaluation Type: Evaluation A (Pre-1980)) “active; positive”; (Species/Cell Type: Drosophila melanogaster, Assay Type: Aneuploidy, whole sex chromosome loss, chromosome aberrations, Assay Code: DAC+F, Evaluation Type: Evaluation A (Pre-1980)) “active; positive”; (Species/Cell Type: Glycine max (soybean), Assay Type: Gene mutation, Assay Code: GLM+, Evaluation Type: Evaluation A (Pre-1980)) “active; positive”; (Species/Cell Type: Human, Sex: Male, Assay Type: Sperm morphology, Assay Code: SPHT, Evaluation Type: Evaluation A (Pre-1980)) “no conclusion”; (Species/Cell Type: Mammalian cell culture, nonhuman, Assay Type: Micronucleus test in vitro, chromosome aberrations, Assay Code: MN&+, Evaluation Type: Evaluation A (Pre-1980)) “active; positive”; (Species/Cell Type: Mammalian polychromatic erythrocytes, Assay Type: Micronucleus test, chromosome aberrations, Assay Code: MNT+, Evaluation Type: Evaluation B (Post-1980)) “active; positive”. The mutagenic call (Species/Cell Type: Mammalian polychromatic erythrocytes, Assay Type: Micronucleus test, chromosome aberrations, Assay Code: MNTT, Evaluation Type: Evaluation A (Pre-1980)) is “no conclusion”; the mutagenic call (Species/Cell Type: Mouse, Sex: Male, Assay Type: Sperm morphology, Assay Code: SPI+, Evaluation Type: Evaluation A (Pre-1980)) is “active; positive”; the mutagenic call (Species/Cell Type: Neurospora crassa, Assay Type: Aneuploidy, chromosome aberrations, Assay Code: NEN-, Evaluation Type: Evaluation A (Pre-1980)) was “inactive; negative”; the mutagenic call (Species/Cell Type: Nonhuman, Assay Type: Sister-chromatid exchange (SCE) in vivo, Assay Code: SC3-, Evaluation Type: Evaluation B (Post-1980)) was “inactive; negative”; the mutagenic call (Species/Cell Type: Plant, Assay Type: Micronucleus test, chromosome aberrations, Assay Code: MNP+, Evaluation Type: Evaluation A (Pre-1980)) was “active; positive”.

`CC(C)[C@@](O)(C(=O)OCC1=CCN2CCC[C@@H]12)[C@@H](C)O`: the mutagenic call runs as follows: (Species/Cell Type: Allium cepa, Assay Type: Chromosome aberrations, Assay Code: ALC+, Evaluation Type: Evaluation A (Pre-1980)) “active; positive”; under setting [3], “active; positive”.

On to `CCOC(=O)CC(SP(=S)(OC)OC)C(=O)OCC` (centres undefined) (tested in a mixture with another compound), for which, under “Species/Cell Type: Hordeum vulgare (barley), Assay Type: Chromosome aberrations, Assay Code: HOC+, Evaluation Type: Evaluation A (Pre-1980)”, the mutagenic call is “active; positive”.

For the compound `COc1ccc2c3c(n(CC=C(C)C)c2c1)[C@H](C=C(C)C)N1C(=O)[C@@H]2CCCN2C(=O)[C@]1(O)[C@H]3O`, the mutagenic call (Species/Cell Type: Salmonella typhimurium (one or more of the five standard strains: TA98, TA100, TA1535, TA1537, and TA1538), Assay Type: Histidine reverse gene mutation, Ames assay, Assay Code: SALT, Evaluation Type: Evaluation A (Pre-1980)) was “no conclusion”.

Consider `O=S1(=O)OCCO1`, for which the mutagenic call reads like this: under setting [2], “active; positive”; under setting [4], “active; positive”.

Turning to `COc1cc(N=Nc2ccccc2)ccc1N`, the mutagenic call by setting is: (Species/Cell Type: Escherichia coli polA (W3110 vs P3478), Assay Type: Rec-assay, DNA effects (bacterial DNA repair), Assay Code: RE2+, Evaluation Type: Evaluation A (Pre-1980)) “active; positive”; (Species/Cell Type: Escherichia coli polA (W3119 vs P3478), Assay Type: Rec-assay, DNA effects (bacterial DNA repair), Assay Code: RE1T, Evaluation Type: Evaluation A (Pre-1980)) “no conclusion”; (Species/Cell Type: Saccharomyces cerevisiae, Assay Type: Mitotic recombination or gene conversion, Assay Code: YEH+/-*, Activation: With metabolic activation, Evaluation Type: Evaluation A (Pre-1980)) “inactive; positive without activation, negative with activation”; under setting [5], “active; positive”; under setting [4], “active; positive”; under setting [6], “active; positive”. Further, the call (Species/Cell Type: Nonhuman, Assay Code: CCG+L, Evaluation Type: Evaluation A (Pre-1980)) is “active; positive”.

As for `O=NN1CCCCC1`, the mutagenic call runs as follows: (Species/Cell Type: Drosophila melanogaster, Assay Type: Aneuploidy, partial sex chromosome loss, chromosome aberrations, Assay Code: DAPT, Evaluation Type: Evaluation A (Pre-1980)) “no conclusion”; (Species/Cell Type: Drosophila melanogaster, Assay Type: Aneuploidy, whole sex chromosome loss, chromosome aberrations, Assay Code: DACT, Evaluation Type: Evaluation A (Pre-1980)) “no conclusion”; under setting [3], “active; positive”; (Species/Cell Type: Escherichia coli polA (W3119 vs P3478), Assay Type: Rec-assay, DNA effects (bacterial DNA repair), Assay Code: RE1+, Evaluation Type: Evaluation A (Pre-1980)) “active; positive”; (Species/Cell Type: Nonhuman, Assay Type: Sister-chromatid exchange (SCE) in vivo, Assay Code: SC3+, Evaluation Type: Evaluation B (Post-1980)) “active; positive”; (Species/Cell Type: Saccharomyces cerevisiae, Assay Type: Forward gene mutation, Assay Code: YEF+*, Activation: With metabolic activation, Evaluation Type: Evaluation A (Pre-1980)) “active; positive”. Also, the mutagenic call is “active; positive” (Species/Cell Type: Saccharomyces cerevisiae, Assay Type: Reverse gene mutation, Assay Code: YER+*, Activation: With metabolic activation, Evaluation Type: Evaluation A (Pre-1980)); “active; positive” under setting [5]; “active; positive” under setting [6]. For the same compound, under setting [1], the call is “active; positive”.
